Results on one compound are retold here after patent publication US9907803B2, “Methods for treating attention deficit hyperactivity disorder” (REVIVA PHARMACEUTICALS, INC., priority 2014, dated 2018).

Structures can show the parent of a compound that is named as a salt.

The assay concerns the target 5-HT2A (Homo sapiens, UniProt P28223). In words: Radioligand binding assay, serotonin 5-HT2A. To be noted: 5-HT2A radioligand binding. As to the method:
Two arylpiperazine derivatives of Formula (I) were tested in the in vitro pharmacological assays to evaluate their activities for dopamine D2 and D4, and serotonin 5-HT1A, 5-HT2A, 5-HT2B, 5-HT6 and 5-HT7 receptors.
Methods employed to evaluate the test compounds A and B in radioligand binding assays were adopted from the scientific literature references as shown in Table 1 to maximize reliability and reproducibility. Reference standards were run as an integral part of each assay to ensure the validity of the results obtained.
Literature References in Table 1: • 1. Gundlach, A. L., et al., Life Sciences 1984, 35:1981-1986. • 2. Hoyer, D., et al, Eur J Pharmacol, 1985, 118:13-23 • 3. Hall, D. a., et al, Brit J Pharmacol, 1997, 121:731-736. • 4. Carpenter, J. W., et al, (2002) Configuring radioligand receptor binding assays for HTS using scintillation proximity assay technology. Methods in Molecular Biology 190 High Throughput Screening: Methods and Protocols • [www.ncgc.nihgov/guidance/manualtoc.html] • 5. Van Tol, et al, nature 1992, 358:149-152. • 6. Bonhaus, D. W., et al, Brit J Pharmacol, 1995, 115:622-628. • 7. Monsma, F. J., et al, Mol Pharmacol, 1993, 43:320-327. • 8. Shen, Y. et al, J. Biol Chem, 1993, 268:18200-18204. • 9. Adham, N., et al, J Pharmacol Exp Ther, 1998, 287:508-514.

Sequence of 5-HT2A (P28223 whole entry): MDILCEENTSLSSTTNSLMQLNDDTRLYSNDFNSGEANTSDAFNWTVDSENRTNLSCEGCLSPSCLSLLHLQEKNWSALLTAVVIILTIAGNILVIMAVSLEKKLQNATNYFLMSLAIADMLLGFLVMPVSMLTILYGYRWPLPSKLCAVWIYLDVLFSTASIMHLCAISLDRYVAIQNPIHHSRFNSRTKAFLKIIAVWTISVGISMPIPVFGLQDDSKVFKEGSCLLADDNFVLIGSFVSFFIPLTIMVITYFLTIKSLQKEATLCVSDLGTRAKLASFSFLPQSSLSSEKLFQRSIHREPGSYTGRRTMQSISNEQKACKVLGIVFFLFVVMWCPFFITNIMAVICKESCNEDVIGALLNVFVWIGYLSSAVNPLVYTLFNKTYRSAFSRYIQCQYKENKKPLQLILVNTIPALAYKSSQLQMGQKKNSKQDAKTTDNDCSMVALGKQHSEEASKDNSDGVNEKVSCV

Turning to `O=C1COc2ccc(OCCCCN3CCN(c4cccc(Cl)c4Cl)CC3)cc2N1` [Compound B, 6-(4-(4-(2,3-dichlorophenyl)piperazin-1-yl)butoxy)-2H-benzo[b][1,4]oxazin-3(4H)-one hydrochloride], the Ki (as a rule, the equilibrium dissociation constant of an inhibitor or competing ligand from its target) was found to be 2.5 nM.
